For experiment [1], the system named is Streptococcus pneumoniae. As to the kind of experiment: VITEK2 Compact AST (AST-GP68 cards) with penicillin disc diffusion, gold standard culture-based AST. It counts as cell-based. On the procedure:
Step 1. Drug susceptibility verification: The Streptococcus pneumoniae isolates were tested for drug susceptibility using bioMérieux Vitek2 Compact System and AST-GP68 cards, and specifically, the susceptibility of penicillin was double checked by disc diffusion method (OXOID, CT0043B), and the combined results were used as the gold standard (culture-based AST).
Step 1. Sample collection and drug susceptibility verification: 48 clinical Streptococcus pneumoniae isolates were collected from 18 hospitals across china in a period between May 2017 and October 2019. All isolates were tested for drug susceptibility using bioMérieux Vitek2 Compact System and AST-GP68 card, and specifically, the susceptibility of penicillin was double checked by disc diffusion method (OXOID, CT0043B), and the combined results were used as the gold standard (culture-based AST).
For orientation: Agar diffusion results depend on both activity and mobility in agar.

Experiment [2] concerns Enterococcus faecalis. As to the kind of experiment: VITEK2 Compact AST (AST-P639 cards), gold standard culture-based AST. The class given is cell-based.
The mark [3] stands for this setting: Resistance profile classification A.
Where [4] appears, read: Resistance profile classification B.
[5] abbreviates: Resistance profile classification C.
The mark [6] stands for this setting: Resistance profile classification D.
[7] abbreviates: Resistance profile classification F (first line so labelled, r12).
Setting [8] is: Resistance profile classification F (second line so labelled, r13).
The mark [9] stands for this setting: Resistance profile classification G.
[10] abbreviates: Resistance profile classification H.
Where [11] appears, read: Resistance profile classification I.
[12] abbreviates: Resistance profile classification J.
[13] abbreviates: Resistance profile classification K.
[14] abbreviates: Resistance profile classification L.
Where [15] appears, read: Resistance profile classification M.
The mark [16] stands for this setting: Resistance profile classification S.
Also: key: ‘R’ indicates drug-resistant; ‘S’ indicates drug-susceptible.

`COc1c(N2C[C@@H]3CCCN[C@@H]3C2)c(F)cc2c(=O)c(C(=O)O)cn(C3CC3)c12` [moxifloxacin]: in experiment [1], the “Blind 1 by AST” value is listed as “S” and the “blind 2 by AST” value was “S”.
As to `C[C@@H](O)[C@H]1C(=O)N2C(C(=O)O)=C(S[C@@H]3CN[C@H](C(=O)Nc4cccc(C(=O)O)c4)C3)[C@H](C)[C@H]12` [ertapenem], in experiment [1], the “Blind 1 by AST” value is “S” and the “blind 2 by AST” value was “S”.
For the compound `C[C@@H](O)[C@H]1C(=O)N2C(C(=O)O)=C(S[C@@H]3CN[C@H](C(=O)N(C)C)C3)[C@H](C)[C@H]12` [meropenem], in experiment [1], the “Blind 1 by AST” value is “S” and the “blind 2 by AST” value was “S”.
In the case of `CN(C)[C@@H]1C(O)=C(C(N)=O)C(=O)[C@@]2(O)C(O)=C3C(=O)c4c(O)cccc4[C@@](C)(O)[C@H]3C[C@@H]12` [tetracycline], the “Susceptibility of Emterococcus faecalis to 11 antibacterial drugs” value (“Susceptibility of Emterococcus faecalis” for short) in experiment [2] (setting [3]) is listed as “R”; in experiment [2] (setting [4]) it was “S”; in experiment [2] (setting [5]) it was “S”; in experiment [2] (setting [6]), “S”; in experiment [2] (setting [7]) it was “S”; in experiment [2] (setting [8]) it was “R”. Besides, the “Susceptibility of Emterococcus faecalis” value in experiment [2] (setting [9]) is “R”; in experiment [2] (setting [10]) it was “R”; in experiment [2] (setting [11]), “S”; in experiment [2] (setting [12]), “R”; in experiment [2] (setting [13]) it was “R”; in experiment [2] (setting [14]), “S”. Besides, the entries for the “Susceptibility of Emterococcus faecalis” value in experiment [2] (setting [15]) and in experiment [2] (setting [16]) were “R” and “S”, respectively. Moreover, in experiment [1], the “Blind 1 by AST” value is “R”. For the same compound, the “Susceptibility of Streptococcus pneumoniae to 14 antibacterial drugs” value in experiment [1] (setting [3]) is listed as “R”; in experiment [1] (setting [4]), “R”; in experiment [1] (setting [5]), “S”; in experiment [1] (setting [6]), “S”; in experiment [1] (Resistance profile classification E), “S”; in experiment [1] (Resistance profile classification F) it was “S”. The “Susceptibility of Streptococcus pneumoniae to 14 antibacterial drugs” value was “S” in experiment [1] (setting [9]); “S” in experiment [1] (setting [10]); “S” in experiment [1] (setting [11]); “R” in experiment [1] (setting [12]); “S” in experiment [1] (setting [16]). Further, the “blind 2 by AST” value in experiment [1] is listed as “R”.
With `CO/N=C(\C(=O)N[C@@H]1C(=O)N2C(C(=O)O)=C(COC(C)=O)CS[C@H]12)c1csc(N)n1` [cefotaxime], in experiment [1], the “Blind 1 by AST” value was “S” and the “blind 2 by AST” value is listed as “R”.
In the case of `C[C@H]1COc2c(N3CCN(C)CC3)c(F)cc3c(=O)c(C(=O)O)cn1c23` [levofloxacin], the “Susceptibility of Emterococcus faecalis” value in experiment [2] (setting [3]) is “R”; in experiment [2] (setting [4]) it was “R”; in experiment [2] (setting [5]) it was “R”; in experiment [2] (setting [6]), “R”; in experiment [2] (setting [7]), “S”; in experiment [2] (setting [8]) it was “S”. The “Susceptibility of Emterococcus faecalis” value is “R” in experiment [2] (setting [9]); “S” in experiment [2] (setting [10]); “R” in experiment [2] (setting [11]); “S” in experiment [2] (setting [12]); “R” in experiment [2] (setting [13]); “R” in experiment [2] (setting [14]). Besides, the “Susceptibility of Emterococcus faecalis” value in experiment [2] (setting [15]) is listed as “S”; in experiment [2] (setting [16]) it was 8. The “Blind 1 by AST” value in experiment [1] is reported as “S”. In addition, the “blind 2 by AST” value in experiment [1] is recorded as “S”.
On to `CO/N=C(\C(=O)N[C@@H]1C(=O)N2C(C(=O)O)=C(CSc3nc(=O)c(=O)[nH]n3C)CS[C@H]12)c1csc(N)n1` [ceftriaxone], for which, in experiment [1], the “Blind 1 by AST” value is “S” and the “blind 2 by AST” value was “R”.
high-level gentamicin [HLAR]: the “Susceptibility of Emterococcus faecalis” value is recorded as “R” in experiment [2] (setting [3]); “R” in experiment [2] (setting [4]); “S” in experiment [2] (setting [5]); “S” in experiment [2] (setting [6]); “S” in experiment [2] (setting [7]); “S” in experiment [2] (setting [8]). Moreover, the “Susceptibility of Emterococcus faecalis” value was “R” in experiment [2] (setting [9]); “R” in experiment [2] (setting [10]); “R” in experiment [2] (setting [11]); “S” in experiment [2] (setting [12]); “S” in experiment [2] (setting [13]); “S” in experiment [2] (setting [14]). Further, the “Susceptibility of Emterococcus faecalis” value in experiment [2] (setting [15]) and in experiment [2] (setting [16]) was “S” in each case.
For the compound `CN(C)c1cc(NC(=O)CNC(C)(C)C)c(O)c2c1C[C@H]1C[C@H]3[C@H](N(C)C)C(O)=C(C(N)=O)C(=O)[C@@]3(O)C(O)=C1C2=O` [tigecycline], the “Susceptibility of Emterococcus faecalis” value in experiment [2] (setting [3]), in experiment [2] (setting [4]), in experiment [2] (setting [5]), in experiment [2] (setting [6]), in experiment [2] (setting [7]) and in experiment [2] (setting [8]) was “S” each time. The “Susceptibility of Emterococcus faecalis” value in experiment [2] (setting [9]), in experiment [2] (setting [10]), in experiment [2] (setting [11]), in experiment [2] (setting [12]), in experiment [2] (setting [13]) and in experiment [2] (setting [14]) was “S” each time. In addition, in experiment [2] (setting [16]), the “Susceptibility of Emterococcus faecalis” value is listed as “S”.
`CC(=O)NC[C@H]1CN(c2ccc(N3CCOCC3)c(F)c2)C(=O)O1` [linezolid]: the “Susceptibility of Emterococcus faecalis” value in experiment [2] (setting [3]), in experiment [2] (setting [4]), in experiment [2] (setting [5]), in experiment [2] (setting [6]), in experiment [2] (setting [9]) and in experiment [2] (setting [10]) was “S” throughout. Besides, the “Susceptibility of Emterococcus faecalis” value in experiment [2] (setting [11]), in experiment [2] (setting [12]), in experiment [2] (setting [13]), in experiment [2] (setting [14]), in experiment [2] (setting [15]) and in experiment [2] (setting [16]) was “S” each time. Further, in experiment [1], the “Blind 1 by AST” value is listed as “S”. Further, the “blind 2 by AST” value in experiment [1] is on record as “S”.
`CCCCCCCCCC(=O)N[C@@H](Cc1c[nH]c2ccccc12)C(=O)N[C@H](CC(N)=O)C(=O)N[C@@H](CC(=O)O)C(=O)N[C@@H]1C(=O)NCC(=O)N[C@@H](CCCN)C(=O)N[C@@H](CC(=O)O)C(=O)N[C@H](C)C(=O)N[C@@H](CC(=O)O)C(=O)NCC(=O)N[C@H](CO)C(=O)N[C@@H]([C@H](C)CC(=O)O)C(=O)N[C@@H](CC(=O)c2ccccc2N)C(=O)O[C@@H]1C` [daptomycin]: the “Susceptibility of Emterococcus faecalis” value in experiment [2] (setting [3]), in experiment [2] (setting [4]), in experiment [2] (setting [5]), in experiment [2] (setting [6]), in experiment [2] (setting [7]) and in experiment [2] (setting [8]) was “S” each time. Moreover, the “Susceptibility of Emterococcus faecalis” value in experiment [2] (setting [9]), in experiment [2] (setting [10]), in experiment [2] (setting [11]), in experiment [2] (setting [12]), in experiment [2] (setting [13]) and in experiment [2] (setting [14]) was “S” throughout. For the same compound, the “Susceptibility of Emterococcus faecalis” value in experiment [2] (setting [15]) and in experiment [2] (setting [16]) was “S” in each case.
For the compound `CO/N=C(\C(=O)N[C@@H]1C(=O)N2C(C(=O)[O-])=C(C[N+]3(C)CCCC3)CS[C@H]12)c1csc(N)n1` [cefepime], in experiment [1], the “Blind 1 by AST” value is listed as “S” and the “blind 2 by AST” value is recorded as “R”.

The values above are taken from patent US20220380829A1, “Method of Diagonosizing Pathogens and their Antimicrobial Susceptibility” (HANGZHOU DIAN MEDICAL LABORATORY CO., LTD., priority 2019, published 2022).
